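The concentration for 50% growth inhibition is given as GI50. Definition used: TGI = concentration required for complete inhibition of growth.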
Tests used:
Assay in all cases: NCI anticancer screen, dose series, 384-well format
[1] = test system: 786-0 renal
[2] = test system: A498 renal
[3] = test system: A549 NSCLC
[4] = test system: ACHN renal
[5] = test system: BT-549 breast
[6] = test system: CAKI-1 renal
[7] = test system: CCRF-CEM leukemia
[8] = test system: COLO 205 colon
[9] = test system: DU-145 prostate
[10] = test system: EKVX NSCLC
[11] = test system: HCC-2998 colon
[12] = test system: HCT-116 colon
[13] = test system: HCT-15 colon
[14] = test system: HL-60(TB) leukemia
[15] = test system: HOP-62 NSCLC
[16] = test system: HOP-92 NSCLC
[17] = test system: HS 578T breast
[18] = test system: HT29 colon
[19] = test system: IGROV1 ovarian
[20] = test system: K-562 leukemia
[21] = test system: KM12 colon
[22] = test system: LOX IMVI melanoma
[23] = test system: M14 melanoma
[24] = test system: MALME-3M melanoma
[25] = test system: MCF7 breast
[26] = test system: MDA-MB-231 breast
[27] = test system: MDA-MB-435 melanoma
[28] = test system: MDA-MB-468 breast
[29] = test system: MOLT-4 leukemia
[30] = test system: NCI-H226 lung
[31] = test system: NCI-H23 lung
[32] = test system: NCI-H322M lung
[33] = test system: NCI-H460 NSCLC
[34] = test system: NCI-H522 lung
[35] = test system: NCI/ADR-RES ovarian
[36] = test system: OVCAR-3 ovarian
[37] = test system: OVCAR-4 ovarian
[38] = test system: OVCAR-5 ovarian
[39] = test system: OVCAR-8 ovarian
[40] = test system: PC-3 prostate
[41] = test system: RPMI-8226 leukemia
[42] = test system: RXF 393 renal
[43] = test system: SF-268 CNS
[44] = test system: SF-295 CNS
[45] = test system: SF-539 CNS
[46] = test system: SK-MEL-28 melanoma
[47] = test system: SK-MEL-5 melanoma
[48] = test system: SK-OV-3 ovarian
[49] = test system: SN12C renal
[50] = test system: SNB-19 CNS
[51] = test system: SNB-75 CNS
[52] = test system: SW-620 colon
[53] = test system: T-47D breast
[54] = test system: TK-10 renal
[55] = test system: U251 glioblastoma
[56] = test system: UACC-257 melanoma
[57] = test system: UACC-62 melanoma
[58] = test system: UO-31 renal

Work on `O=C(Nc1ccc(Oc2ccc(F)cc2)cc1)[C@@H]1C[C@@H](Cc2ccc(F)cc2)CN1C(=O)Cn1ccnn1` yielded a GI50 [1] of 4.65 µM, a TGI [1] of 16.3 µM and a GI50 [2] of 5.24 µM. It also gave a TGI [2] of 16.5 µM, a GI50 [3] of 4.06 µM and a TGI [3] of 19.2 µM. For the same molecule, the GI50 [4] was 4.88 µM, the TGI [4] was 17.4 µM and the GI50 [5] was 7.1 µM. For the same molecule, the TGI [5] was 18.7 µM, the GI50 [6] was 12.1 µM and the TGI [6] was 25.1 µM. It also gave a GI50 [7] of 2.64 µM, a TGI [7] of 5.92 µM and a GI50 [8] of 8.04 µM. The TGI [8] was 21.4 µM, the GI50 [9] was 10.8 µM and the TGI [9] was 26.7 µM. It also gave a GI50 [10] of 11 µM, a TGI [10] of 24.9 µM and a GI50 [11] of 4.57 µM. It also gave a TGI [11] of 14.6 µM, a GI50 [12] of 5.34 µM and a TGI [12] of 16.7 µM. The GI50 [13] was 6.73 µM, the TGI [13] was 21.9 µM and the GI50 [14] was 2.44 µM. For the same molecule, the TGI [14] was 4.34 µM, the GI50 [15] was 6.4 µM and the TGI [15] was 18.2 µM. The GI50 [16] was 3.72 µM, the TGI [16] was 12.1 µM and the GI50 [17] was 7.78 µM. The TGI [17] was 19.6 µM, the GI50 [18] was 3.46 µM and the TGI [18] was 11.7 µM. For the same molecule, the GI50 [19] was 7.92 µM, the TGI [19] was 20.8 µM and the GI50 [20] was 4.7 µM. For the same molecule, the TGI [20] was 14.9 µM, the GI50 [21] was 8.19 µM and the TGI [21] was 20.8 µM. It also gave a GI50 [22] of 5.29 µM, a TGI [22] of 17.1 µM and a GI50 [23] of 7.23 µM. The TGI [23] was 19.8 µM, the GI50 [24] was 6.92 µM and the TGI [24] was 19.2 µM. For the same molecule, the GI50 [25] was 4.1 µM, the TGI [25] was 14.5 µM and the GI50 [26] was 13.5 µM. It also gave a TGI [26] of 27.1 µM, a GI50 [27] of 13.3 µM and a TGI [27] of 26.3 µM. It also gave a GI50 [28] of 6.95 µM, a TGI [28] of 18.8 µM and a GI50 [29] of 2.02 µM. For the same molecule, the TGI [29] was 3.78 µM, the GI50 [30] was 9.85 µM and the TGI [30] was 21.7 µM. It also gave a GI50 [31] of 15.7 µM, a TGI [31] of 29.9 µM and a GI50 [32] of 14.8 µM. For the same molecule, the TGI [32] was 30.1 µM, the GI50 [33] was 5.39 µM and the TGI [33] was 16.8 µM. For the same molecule, the GI50 [34] was 6.56 µM, the TGI [34] was 18.8 µM and the GI50 [35] was 16.1 µM. The TGI [35] was 36.7 µM, the GI50 [36] was 7.5 µM and the TGI [36] was 19.5 µM. For the same molecule, the GI50 [37] was 11.9 µM, the TGI [37] was 26.4 µM and the GI50 [38] was 14.7 µM. It also gave a TGI [38] of 28.3 µM, a GI50 [39] of 11.1 µM and a TGI [39] of 23.4 µM. It also gave a GI50 [40] of 4.69 µM, a TGI [40] of 15 µM and a GI50 [41] of 3.81 µM. For the same molecule, the TGI [41] was 9.88 µM, the GI50 [42] was 3.77 µM and the TGI [42] was 11.4 µM. The GI50 [43] was 2.52 µM, the TGI [43] was 7.96 µM and the GI50 [44] was 7.16 µM. The TGI [44] was 19.5 µM, the GI50 [45] was 10.9 µM and the TGI [45] was 23 µM. It also gave a GI50 [46] of 15.8 µM, a TGI [46] of 29.4 µM and a GI50 [47] of 8.64 µM. It also gave a TGI [47] of 21 µM, a GI50 [48] of 12.7 µM and a TGI [48] of 28.1 µM. The GI50 [49] was 12.9 µM, the TGI [49] was 25.8 µM and the GI50 [50] was 11.6 µM. It also gave a TGI [50] of 25.9 µM, a GI50 [51] of 7.44 µM and a TGI [51] of 20.7 µM. For the same molecule, the GI50 [52] was 16.1 µM, the TGI [52] was 29.8 µM and the GI50 [53] was 3.64 µM. The TGI [53] was 10 µM, the GI50 [54] was 11.1 µM and the TGI [54] was 24.2 µM. It also gave a GI50 [55] of 4.94 µM, a TGI [55] of 16.3 µM and a GI50 [56] of 11.6 µM. The TGI [56] was 23.9 µM, the GI50 [57] was 13.2 µM and the TGI [57] was 26.1 µM. It also gave a GI50 [58] of 10.8 µM and a TGI [58] of 22.9 µM.

From PubChem BioAssay (NCI)
